# From US20050002922A1, “Use of secretin and secretin analogs to treat affective disorders” (priority 2003, published 2005)
# Legend:
# Fos protein expression = experiment: Brain gene expression measured by Fos protein expression; assay type: in vivo, rat
# [1] = test system: rats (fear-potentiated startle); experiment: Fear-potentiated startle paradigm in rats; assay type: in vivo, rat
# Protocol: The conditioned stimulus (CS) was a 3.7 second light (80 lux) produced by an 8 W fluorescent bulb (100 msecond rise time) located 10 cm behind each cage. Luminosity was measured using a VWR light meter (Atlanta, Ga.). The US was a 0.5 second shock, delivered to the floorbars and produced by a shock generator (SGS-004; LeHigh Valley, Beltsville, Md.). Shock intensities (measured as in Cassella et al., Physiol Behav 36:1187-91, 1986) were 0.4 mA. The presentation and sequencing of all stimuli were under the control of the Macintosh G3 computer using custom-designed software (The Experimenter; Glassbeads Inc., Newton, Conn.).
# The experiment was run in four replications.
# Fear conditioning. On each of the next 2 days, rats were returned to the test chambers and 5 minutes later given the first of 10 light-footshock pairings. The 0.4 mA 0.5 second shock was delivered during the last 0.5 second of the 3.7 second light. The average intertrial interval (ITI) was 4 minutes (range, 3-5 minutes).
# [2] = test system: rats (spatial learning and memory)
# Excerpt: The M swim maze was developed to test spatial learning and memory (e.g., functional memory). The animal has no visual or spatial cues in the pool and must rely on extra-maze cues (e.g., light setup outside the pool that can be seen by the swimming animal). Through a series of trials a rat develops “place learning” or knowledge about the position of the escape platform based upon the extra-maze cues. The platform can be moved to a different arm of the M configuration each day, combining spatial memory with working memory. This paradigm involves extinction of the prior memory and resolution of a new spatial problem.
# Test Animals. A total of 40 male rats were used.
# Behavioral Procedures and Data Analysis. Rats (10/group) were treated by tail vein injection with vehicle, 0.4 μg/kg/day, 4.0 μg/kg/day, and 40 μg/kg/day secretin on post natal day 25 through postnatal day 70 (45 days). Learning and memory was evaluated in a water M-maze. The evaluation consisted of 10 trials/day for each animal on 4 successive days to assess short-term memory. The goal was to escape from the maze via a platform located on the lighted arm of an M-shaped maze. After placement of the animal in the central arm of the M-shaped maze, the goal side was varied for each animal at each trial according to a predetermined computer generated sequence. The same animals were also tested 5 days after the initial testing to assess long-term memory. On that day each animal were allowed 10 trials in the maze and time to escape was measured. Significance was calculated versus the control group value for the same day of testing using a T-test.
# [3] = test system: rats (baseline acoustic startle); conditions: rat, in vivo, ip
# Protocol: A total of 72 male Sprague-Dawley rats (Charles River, Portage, Mich.) weighing 350-450 g were used. Animals were maintained on a 12:12 hour light-dark cycle (lights on at 0700) with food and water continuously available. All rats were housed in group cages of four rats each in a temperature-controlled (24° C.) animal colony.
# Animals were trained and tested in 8×15×15 cm Plexiglas® and wire-mesh cages. Each cage floor consisted of four 6.0 mm diameter stainless-steel bars spaced 18 mm apart. Each cage was suspended between compression springs within a steel frame and located within a custom-designed 90×70×70 cm ventilated sound-attenuating chamber. Background noise (60 dB wide-band) was provided by a General Radio Type 1390-B noise generator (Concord, Mass.) and delivered through high-frequency speakers (Radio Shack Supertweeter; Tandy, Fort Worth, Tex.) located 5 cm in front of each cage. Sound level measurements (sound pressure level) were made with a Bruel & Kjaer (Marlborough, Mass.) model 2235 sound-level meter (A scale; random input) with the microphone (Type 4176) located 7 cm from the center of the speaker (approximating the distance of the rat's ear from the speaker). […]
substance,measurement,setting,value
secretin,dose giving peak change in Fos protein expression,Fos protein expression; i.p. or i.v.,40 µg/kg
same,minimum dose to detect significant changes in brain gene expression (Fos protein),Fos protein expression; i.v. or i.p.,4 µg/kg
same,minimum dose possessing anxiolytic properties in fear-potentiated startle paradigm,[1]; i.p.,3 µg/kg
same,effect on expression of fear-potentiated startle,[1]; i.p. 1-100 μg/kg immediately prior to testing,dose dependently impaired expression of fear-potentiated startle
same,dose giving greatest impairment of fear-potentiated startle,[1]; i.p. immediately prior to testing,10 µg/kg
same,ability to learn and remember a spatial associative memory task,"[2]; rat, in vivo, iv",does not impair
same,learning performance in water M-maze relative to controls,"[2]; rats, 0.4 or 4.0 μg/kg/day i.v., after 4 training days, maintained after 5 day rest",improved in learning performance
same,minimum dose that improves functional memory in M swim maze,"[2]; rats, i.v.",0.4 µg/kg
same,effect of higher doses on baseline startle,[3],tended to suppress baseline startle
